Experimental data as given in US20060194819A1, “Activation specific inhibitors of nf-kb and method of treating inflammatory processes in cardio-vascular diseases” (PROCORDE GMBH, priority 2003, published 2006).

Experiments:
[1] = target: T1, IKK-complex (Homo sapiens, UniProt O14920+O15111+Q9Y6K9); experiment: In vitro/cell free kinase assay: IKK-complex immunoprecipitated from TNF alpha stimulated HeLa cells, drugs added afterwards, alpha screen; format: biochemical
T1 construct: IKK-complex was immunoprecipitated with anti-NEMO-antibody; endogenous in cells; host or cells: HeLa
T1 sequence (O14920 whole entry): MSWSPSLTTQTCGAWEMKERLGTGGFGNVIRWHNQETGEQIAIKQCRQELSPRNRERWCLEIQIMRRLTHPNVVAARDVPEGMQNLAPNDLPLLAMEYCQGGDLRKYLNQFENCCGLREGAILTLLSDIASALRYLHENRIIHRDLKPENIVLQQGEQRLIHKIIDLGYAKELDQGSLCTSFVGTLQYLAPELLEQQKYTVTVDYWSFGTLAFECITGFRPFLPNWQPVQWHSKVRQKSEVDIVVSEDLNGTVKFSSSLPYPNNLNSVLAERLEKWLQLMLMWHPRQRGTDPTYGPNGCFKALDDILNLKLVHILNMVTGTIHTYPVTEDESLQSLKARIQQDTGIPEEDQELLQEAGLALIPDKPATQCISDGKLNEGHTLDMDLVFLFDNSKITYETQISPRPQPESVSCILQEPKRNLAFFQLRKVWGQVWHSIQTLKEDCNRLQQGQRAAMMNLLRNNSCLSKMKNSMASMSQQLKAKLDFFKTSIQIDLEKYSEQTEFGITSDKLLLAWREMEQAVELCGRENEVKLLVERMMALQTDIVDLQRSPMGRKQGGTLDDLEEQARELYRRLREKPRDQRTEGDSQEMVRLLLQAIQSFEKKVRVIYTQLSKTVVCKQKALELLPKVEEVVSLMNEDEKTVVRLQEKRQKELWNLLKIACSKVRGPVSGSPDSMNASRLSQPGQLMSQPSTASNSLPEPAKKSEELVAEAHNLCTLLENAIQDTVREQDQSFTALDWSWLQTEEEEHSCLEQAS
T1 sequence (O15111 whole entry): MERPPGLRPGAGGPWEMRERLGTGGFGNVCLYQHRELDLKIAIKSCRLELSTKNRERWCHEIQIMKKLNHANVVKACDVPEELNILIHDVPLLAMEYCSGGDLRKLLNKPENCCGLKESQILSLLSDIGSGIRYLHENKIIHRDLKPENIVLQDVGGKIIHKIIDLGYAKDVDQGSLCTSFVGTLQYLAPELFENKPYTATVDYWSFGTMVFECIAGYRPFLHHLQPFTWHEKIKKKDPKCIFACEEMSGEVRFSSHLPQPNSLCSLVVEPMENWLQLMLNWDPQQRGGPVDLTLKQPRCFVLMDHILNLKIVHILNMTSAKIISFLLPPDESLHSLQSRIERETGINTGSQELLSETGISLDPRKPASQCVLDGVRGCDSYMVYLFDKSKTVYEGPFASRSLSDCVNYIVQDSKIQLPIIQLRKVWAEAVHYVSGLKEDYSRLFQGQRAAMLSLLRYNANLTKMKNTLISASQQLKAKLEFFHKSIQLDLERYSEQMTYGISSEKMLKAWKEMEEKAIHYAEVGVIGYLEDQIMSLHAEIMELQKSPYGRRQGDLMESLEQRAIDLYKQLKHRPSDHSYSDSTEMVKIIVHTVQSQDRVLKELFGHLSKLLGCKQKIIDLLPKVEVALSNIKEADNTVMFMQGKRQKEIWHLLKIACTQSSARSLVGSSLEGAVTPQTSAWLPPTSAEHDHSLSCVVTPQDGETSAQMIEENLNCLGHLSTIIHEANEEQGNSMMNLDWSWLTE
T1 sequence (Q9Y6K9 whole entry): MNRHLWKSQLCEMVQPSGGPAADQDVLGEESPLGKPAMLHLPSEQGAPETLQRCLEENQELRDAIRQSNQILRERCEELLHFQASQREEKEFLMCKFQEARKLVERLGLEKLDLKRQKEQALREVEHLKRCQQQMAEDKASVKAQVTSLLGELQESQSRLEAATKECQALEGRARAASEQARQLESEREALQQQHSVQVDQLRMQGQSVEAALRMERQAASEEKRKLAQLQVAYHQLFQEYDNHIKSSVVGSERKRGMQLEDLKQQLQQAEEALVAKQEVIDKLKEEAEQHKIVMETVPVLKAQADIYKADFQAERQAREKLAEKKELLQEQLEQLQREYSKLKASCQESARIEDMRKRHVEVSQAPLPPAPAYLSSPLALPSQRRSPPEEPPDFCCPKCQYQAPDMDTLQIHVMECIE
Description: In vitro/cell free kinase assay protocol: HeLa cells were maintained in Dulbecco's modified Eagle's medium (Invitrogen) supplemented with 10% fetal bovine serum, 2 mM L-glutamine, penicillin (50 units/ml) and streptomycin (50 μg/ml). 24 h before treatment with TNF alpha HeLa cells were plated at a density of 1×10^7 per well in 175-mm cell culture dishes to 90% confluences.
The cells were stimulated with 20 ng/ml TNF alpha (Roche) without drugs. After 7 min the cells were washed twice with ice cold PBS followed by scraping and transferring into a 1.5 ml micro centrifuge tube. […] 6.6 μl of detection-buffer (20 mM Hepes pH 7.5, 100 mM NaCl, 1% Tween, 0.1 mM BSA, 50 μg/ml Protein A-Acceptor beads, 250 μg/ml Streptavidin-Donor beads (both Perkin-Elmer), 4 nM anti-phospho-IKBα-antibody (Santa Cruz Biotechnology) was dispensed to each well. After incubation for 1.5 h the plate was measured by alpha screen reader (Perkin Elmer).

[2] = system: systemic TNF alpha release; experiment: LPS induced systemic inflammation in rats, serum TNF alpha by ELISA; format: in vivo; conditions: compound 1 μg/g IV pre-treatment, LPS 0.33 μg/g IV
Description: Systemic inflammatory response in rats was induced by lipopolysaccharide (LPS) shock (IV administration of LPS 0.33 μg/g). Inflammatory and inhibition of inflammation by IV administration of compound 56 (1 μg/g) to rats was determined by TNF alphaquantification in […] serum. TNF alpha was detected with an ELISA kit (Pierce) according to the manufacturer's instructions.

[3] = system: I KappaB alpha phosphorylation; experiment: P-IkBalpha detection in Western blot of HeLa cell lysates after TNF alpha stimulation; format: cell-based; conditions: HeLa cells, 10 and 100 μM
Description: P-IkBα Detektion in Western-Blot Protocol: HeLa cells were maintained in Dulbecco's modified Eagle's medium (Invitrogen) supplemented with 10% fetal bovine serum, 2 mM L-glutamine, penicillin (50 units/ml) and streptomycin (50 μg/ml). 24 h before treatment with different compounds HeLa cells were plated at a density of 5×10^6 per well in 100-mm cell culture dishes to 90% confluences.
The cells were incubated with different drugs at the concentration indicated for 1 h, washed twice with PBS and stimulated with 20 ng/ml TNF alpha (Roche). After 7 min the cells were washed twice with ice cold PBS followed by scraping and transferring into a 1.5 ml micro centrifuge tube. After centrifugation by 2000 rpm for 2 min by 4° C. the PBS supernatant was removed and 200 μl lysis-buffer (10 mM Hepes, pH 7.9, 0.1% NP40, 10 mM, 300 mM Sucrose, 10 mM KCl, 15 mM MgCl2, 1 mM DTT, 0.5 mM PMSF and antipain, aprotinin, leupeptin each 0.75 μg/ml (Sigma) was added to the pellet. The resuspended pellet was incubated on ice for 5 min and centrifuged at 13000 g for 30 s. 30 μl of the supernatant, cytosolic extract, was diluted with Laemmli-buffer (2% SDS, 2% 2-Mercaptoethanol, 0.01% Bromophenol blue, 8% Glycerine), heated by 60° C. for 10 min and loaded to a 4-20% polyacrylamid gels (BioRad). After electrophoresis the proteins were transferred to a nitrocellulose membrane using the wet blotting technique. First the membrane was blocked with Roti-Block (Roth) and afterwards incubated with monoclonal antibodies against P-IkBalpha (Santa Cruz Biotechnology, used at 1:200 dilution). This incubation was followed by the appropriate horseradish peroxidase-conjugated secondary antibody (Dianova) at 1:10000 dilution. Antibody binding was visualized on x-ray film using the Western blot Chemiluminescent Reagent Detection Kit (Santa Cruz).

[4] = target: T2, IKKα/β binding to NEMO (Homo sapiens, UniProt O14920+O15111+Q9Y6K9); experiment: Degradation of the immunoprecipitated IKK-complex after drug treatment in vitro, Western blot; format: biochemical; conditions: precipitated IKK-complex incubated 1 h with compound
T2 construct: endogenous in cells; host or cells: HeLa (immunoprecipitate with anti-NEMO antibody on Protein A-Sepharose)
T2 sequence (Q9Y6K9 whole entry): as above
T2 sequence (O15111 whole entry): as the sequence (O15111 whole entry) above
T2 sequence (O14920 whole entry): as the sequence (O14920 whole entry) above
Description: After immuno-precipitation with anti-NEMO antibody (Santa Cruz) as described earlier, the precipitated and washed IKK-complex was incubated with different concentrations of IKK inhibitors in 20 mM HEPES, pH 8.0, 10 mM MgCl2, 100 μM Na3VO4, 20 mM-glycerophosphate, 50 mM NaCl, 2 mM dithiothreitol, 0.5 μM phenylmethylsulfonyl fluoride, antipain, aprotinin, leupeptin 0.75 μg/ml each (Sigma). After 1 h treatment the probe was centrifuged at 16000 g for 1 min the supernatant was removed totally and the protein A pellet was resuspended in 1×Laemmli-buffer buffer (2% SDS, 2% 2-Mercaptoethanol, 0.01% Bromophenol blue, 8% Glycerine), heated by 60° C. for 10 min and loaded to a 4-20% polyacrylamid gels (BioRad). After electrophoresis the proteins were transferred to a nitrocellulose membrane using the wet blotting technique. First the membrane was blocked with Roti-Block (Roth) and afterwards incubated with monoclonal antibodies against IKKα (Santa Cruz Biotechnology, used at 1:200 dilution). This incubation was followed by the appropriate horseradish peroxidase-conjugated secondary antibody (Dianova) at 1:10000 dilution. Antibody binding was visualized on x-ray film using the Western blot Chemiluminescent Reagent Detection Kit (Santa Cruz). The x-ray film was scanned and the results were analysed by densitometry by the software AIDA.

CCOC(=O)C1=C(C)N=c2s/c(=C/c3ccc(-c4cccc(C(=O)O)c4)o3)c(=O)n2C1c1ccc(Cl)cc1 (centres unmarked) [COM 56, 2-[5-(3-Carboxyphenyl)-furan-2-ylmethylene]-5-(4-chlorophenyl)-7-methyl-3-oxo-2,3-dihydro-5H-thiazolo[3,2-a]pyrimidine-6-carboxylic acid ethyl ester]
potency in the inhibition of IKK activity compared to COM 73 ([1]; cell-free assay): significantly higher | inhibition of IKK activity in cell-free assay ([1]; increasing concentrations on isolated IKK complex): dose-dependently inhibited | TNF alpha concentrations in rat serum after LPS [2]: significantly inhibited | effect on IkappaB phosphorylation (Western blot), comparison of COM 73 and COM 54 family [3]: concentration-dependently inhibited | disruption of the IKK complex (NEMO binding to IKK-alpha/beta) in vitro [4]: dose-dependently disrupted
